Tested on: NIH 3T3 fibroblasts
Test: Cell chemotaxis assay (modified Boyden's chamber), NIH 3T3 fibroblasts
Format: cell-based
Source text: NIH/3T3 fibroblasts at passage 126 were purchased from the American Type Culture Collection, Rockville, Md. Cultures from passages 129-133 were used in the chemotaxis assays. Cultures were propagated in DMEM supplemented with 10%. Calf serum and approximately 1% antibiotic antimycotic solution. Human dermal fibroblasts (HDFs) were purchased from Clonetics, Inc. (San Diego, Calif.) at passage 2. Cultures from passages 3-5 were used in the chemotaxis assays. Cultures were cultivated in DMEM supplemented with 20% FBS (Hyclone Laboratories, Inc., Logan, Utah) and approximately 1% antibiotic antimycotic solution (Gibco, Grand Island, N.Y.).
The procedure used to determine cellular chemotaxis was a combination of two known methodologies. A modification of Boyden's chamber was used as follows: Millicell-PCF (Millipore, Inc., Bedford, Mass.) (12.0 μm) 12.0 mm diameter inserts were placed in individual wells of 24 well plates to create the upper and lower chemotaxis chambers. Chemotaxis results were arrived at by performing checkerboard analysis for every combination of cells and growth factors. […] Briefly, cultures were trypsanized and placed in DMEM+0.1% Bovine Serum Albumin (BSA) (Sigma Chemical Co., St. Louis, Mo.) for approximately one hour at 37° C. in a 5% CO2 humidified chamber. Tow to 2.5×10^5 cells in 50 μl were added per insert to the upper chamber of the setup of the 24 well plates. Treatments were added as mentioned above. The assay was kept at 37° C. in a 5% CO2 humidified chamber for 4 hours. All combinations tested were performed in triplicate. At the end of 4 hours, the plates were removed from the incubator and the filters were stained following the protocol for staining included with the Millicell-PCT inserts. Briefly, the fluid surrounding the inside and outside of the Millicell-PCF inserts were removed. Three percent glutaraldehyde (Sigma Chemical Co., St. Louis, Mo.) was added to the outside and inside of the inserts for approximately 20 minutes. Following removal of the 3.0% glutaraldehyde, 0.5% Triton X-100 (E.M. Science, Cherry Hill, N.J.) was added for 5-7 minutes. On removal of the 0.5% Triton X-100, Fisher's Hematoxylin Solution Gill's Formulation (Fisher Scientific, Newark, Del.) No.1 was added for about 10 minutes. This solution was washed off in running distilled water for about 5 minutes. Using a cotton swab the upper side of the filter was swabbed to remove cells which had not migrated. Filters, were mounted lower side facing up on slides in Crystal Mount™ (Biomedia, Inc., Foster City, Calif.) solution and 10 random field were counted per slide both visually at 400× and at 200×using an Image Analyzing System to automate the enumeration of the cells on the underside of the filters.
As required, checkerboard analysis was carried out to determine random migration, and positive and negative chemotaxis. Growth factors were added to the upper and/or lower chambers to observe whether cells migrated towards the GF alone (chemotaxis), whether migration was random irrespective of whether the growth factor was added to the upper or lower well (chemokinesis) or whether cell migration was against the chemotactic gradient (negative chemotaxis).

Substance: HBGF-1: heparin binding growth factor-1, also known as ECGF and FGF-1; recombinant HBGF-1β expressed in E. coli
- checkerboard analysis: chemotactic
- concentration of maximum stimulation of migration (FGF-1 in the presence of 10 U/ml heparin): 10 ng/mL
- migrated cells (checkerboard analysis) (lower 0 ng/ml, upper 1 ng/ml): 53.93 +/− 4.152
- migrated cells (checkerboard analysis) (lower 0 ng/ml, upper 5 ng/ml): 27.27 +/− 3.873
- migrated cells (checkerboard analysis) (lower 0 ng/ml, upper 10 ng/ml): 25.96 +/− 4.151
- migrated cells (checkerboard analysis) (lower 1 ng/ml, upper 0 ng/ml): 59.46 +/− 6.89
- migrated cells (checkerboard analysis) (lower 1 ng/ml, upper 1 ng/ml): 36.9 +/− 5.728
- migrated cells (checkerboard analysis) (lower 1 ng/ml, upper 5 ng/ml): 22.1 +/− 9.232
- migrated cells (checkerboard analysis) (lower 1 ng/ml, upper 10 ng/ml): 35.86 +/− 2.074
- migrated cells (checkerboard analysis) (lower 5 ng/ml, upper 0 ng/ml): 64.867 +/− 1.75
- migrated cells (checkerboard analysis) (lower 5 ng/ml, upper 1 ng/ml): 41.44 +/− 1.866
- migrated cells (checkerboard analysis) (lower 5 ng/ml, upper 5 ng/ml): 24.84 +/− 4.337
- migrated cells (checkerboard analysis) (lower 5 ng/ml, upper 10 ng/ml): 41.6 +/− 6.717
- migrated cells (checkerboard analysis) (lower 10 ng/ml, upper 0 ng/ml): 70.83 +/− 2.752
- migrated cells (checkerboard analysis) (lower 10 ng/ml, upper 1 ng/ml): 39.73 +/− 2.428
- migrated cells (checkerboard analysis) (lower 10 ng/ml, upper 5 ng/ml): 39.73 +/− 2.428
- migrated cells (checkerboard analysis) (lower 10 ng/ml, upper 10 ng/ml): 41.83 +/− 6.879
